Columns and labels:
[1] = tested on: bronchial asthma induced animal model; test: Airway hyperreactivity (Penh) in ovalbumin-induced bronchial asthma mice; assay type: in vivo, mouse; settings: OVA asthma Balb/c mice, 5 or 15 mg/kg PO, FIG. 1
Description: (§1) 6 week old Balb/c female mice in the average weight of 20 g were adapted for 1 week. 2 mg of aluminum hydroxide (A8222, Sigma, St. Louis, Mo.) and 20 μg of ovalbumin (A5503, sigma, St. Louis, Mo.) were suspended in phosphate buffer (pH 7.4). Each mouse was administered with 200 μl of the phosphate buffer suspension via intraperitoneal injection for sensitization at 2 weeks intervals. The mouse was forced to inhale 1% ovalbumin (OVA) through ultrasonic atomizer for 30 minutes a day for 3 days after the first intraperitoneal injection of ovalbumin. 24 hours after the antigen administration, airway hyperreactivity was measured. 48 hours later, a lethal dose of pentobarbital (Entobar, Hanlim Pharma. Co., Ltd.) was administered to the mouse. The bronchus was opened and the alveoli were washed with 1.4 ml of saline. Then, the test samples were obtained. The normal control (NC) was not administered with ovalbumin nor inhaled. […]
After performing the experiment of Experimental Example <3-1> above, airway resistance was measured by using one chamber plethysmography (All Medicus, Seoul) to obtain Penh (enhanced pause) values which were the mathematically calculated numbers reflecting airway obstruction in order to measure airway hyperreactivity. To measure Penh value, basal value in normal breathing status was first measured. […]

[2] = tested on: interleukin 13; test: Interleukin 13 in bronchoalveolar lavage fluid of asthma mice (ELISA); assay type: in vivo, mouse; settings: OVA asthma Balb/c mice, 5 or 15 mg/kg PO, FIG. 3
Description: as §1, with “inhaled. The asthma induced group (OVA) was administered with ovalbumin and inhaled to induce bronchial asthma.” for “inhaled.”
After performing the experiment of Experimental Example <3-1> above, Th2 cytokine (interleukin 5, 13) in bronchoalveolar was measured by sandwich type enzyme immunoassay. […] The content of each cytokine was measured using the kit according to the manufacturer's instruction.

[3] = tested on: inflammatory cells (eosinophils); test: Number of inflammatory cells in bronchoalveolar lavage fluid (Diff-Quick); assay type: in vivo, mouse; settings: OVA asthma Balb/c mice, 5 or 15 mg/kg PO, FIG. 5
Description: as §1, with “inhaled. The asthma induced group (OVA) was administered with ovalbumin and inhaled to induce bronchial asthma. The comparative control was orally administered with dexamethasone (2 mg/kg, PO) one hour before the inhalation (DEX).” for “inhaled.”
After performing the experiment of Experimental Example <3-1> above, the number of inflammatory cells in bronchoalveolar lavage fluid was measured by Diff-Quick staining.

[4] = tested on: serum IgE; test: Level of serum IgE in asthma mice; assay type: in vivo, mouse; settings: OVA asthma Balb/c mice, 5 or 15 mg/kg PO, FIG. 4
Description: as §1, with “inhaled. The asthma induced group (OVA) was administered with ovalbumin and inhaled to induce bronchial asthma. The comparative control was orally administered with dexamethasone (2 mg/kg, PO) one hour before the inhalation (DEX).” for “inhaled.”
After performing the experiment of Experimental Example <3-1> above, the level of serum IgE relating to the severity of asthma was measured by enzyme immunoassay. […] Then, OD650 was measured.

[5] = tested on: Nitrogen Oxide (NO) generation; test: Inhibition of nitrogen oxide (NO) generation in LPS-treated Raw 264.7 cells (Griess); assay type: cell-based, mouse; settings: Raw 264.7, LPS 500 ng/ml, 24 hours
Description: Raw 264.7 (ATCC TIB71) cells were inoculated in a 96-well plate containing the same medium as used in Experimental Example 1 at the density of 1×10^5 cells/well. The cells were cultured in 5% CO2 at 37° C. for 4 hours to attach the cells onto the plate. The cells were treated with each sample at different concentrations, followed by further culture for 1 hour. […] were treated thereto at the final concentration of 500 ng/ml, followed by further culture for 24 hours. 100 μl of the supernatant was taken and transferred in a new plate, which was mixed with Griess reagent (a mixture of 1% sulfanilamide, 0.1% N-[1-naphthyl]-ethylenediamine dihydrochloride, and 5% phosphoric acid), followed by reaction for 10 minutes. Then, OD540 was measured. NO generation was quantified by using the sodium nitrite standard curve prepared from […] dissolved in the same medium at different concentrations. Considering the NO generation of the inflammation induced macrophages as 100%, the NO generation inhibition rate was calculated and presented in Table 7.

[6] = tested on: interleukin-6 (IL-6) generation; test: Inhibition of interleukin-6 (IL-6) generation in LPS-treated Raw 264.7 cells (ELISA); assay type: cell-based, mouse; settings: Mus musculus, RAW264.7; Raw 264.7, LPS treated; read-out: Grades of IC50 on IL-6 generation
Description: Raw 264.7 cells were distributed by the same manner as described in Experimental Example <2-1>, and IL-6 included in the supernatant treated with each sample at different concentrations was measured by enzyme-linked immunosorbent assay (IL-6 ELISA kit, BD Bioscience, San Diego, Calif.).
Particularly, 10-fold diluted supernatant was distributed in a 96-well plate on which IL-6 antibody was attached, followed by adhesion for 2 hours. The supernatant remaining after the adhesion was washed with a washing buffer. The detection antibody and HRP were adhered on the washed plate for 1 hour. The remaining antibody was washed. Color development was induced by using TMB substrate. The reaction was terminated with sulfuric acid solution. Then, OD450 was measured. IL-6 in the supernatant was quantified by using the standard curve made with the standard IL-6 included in the kit. IL-6 suppression rate was calculated by measuring the same concentration that could inhibit IL-6 generation up to 50% in the LPS treated group and the results are shown in Table 8.

## COc1cc(CCCO)cc2cc(-c3ccc(C)cc3)oc12 [Example 4, 3-(7-methoxy-2-p-tolylbenzofuran-5-yl)propane-1-ol]
[1]
  Penh value (airway hyperreactivity): significantly reduced
[2]
  content of interleukin 13 in bronchoalveolar lavage fluid: significantly reduced
[3]
  infiltration of inflammatory cells (eosinophils) in bronchoalveolar lavage fluid: efficiently reduce
[4]
  generation of serum IgE induced by OVA: efficiently reduced
[5]
  Grades of NO generation inhibition rate (%): B (B: 25<B≤35)
[6]
  IC50: ≤ 10 µM

From patent US10053443B2, “2-phenylbenzofuran derivatives, method for preparing the same and use of the same for treating inflammatory disease” (KOREA RESEARCH INSTITUTE OF BIOSCIENCE AND BIOTECHNOLOGY, priority 2014, dated 2018)
